Laboratory results taken from patent publication US12622945B2, “Hard tissue therapeutics” (OrthoTrophix, Inc., priority 2020, dated 2026).
“Also recorded” adds a separate entry of the source. Where no end group is shown, it is not given here.

Assays:
[1] = tested on: subjects with bilateral knee osteoarthritis; assay: Multicenter, randomized double-blind, placebo-controlled clinical study in bilateral knee osteoarthritis; format: in vivo, human; settings: IA injections
Procedure: No other doses of drug or placebo were administered.
MRI of both knees were obtained from these 93 subjects at baseline, 6 and/or 12 months. They were sent to the central readers of cartilage thickness and 3D bone shape, respectively. Both central readers were blinded to the treatment assignment and clinical data throughout their analysis process.
For the 3D bone shape analyses, its central reader first made a qualification review of all MRI images from the 93 subjects since they were obtained primarily for cartilage thickness measurement.
MRIs from the remaining 78 subjects (156 knees: 78 Index and 78 Control) were qualified for analysis of 3D shape of the knee joint bones (B-scores of femur, tibia, and patella).
If all clinical inclusion and exclusion criteria were met, MRIs of both knees were obtained and evaluated by a central reader to determine the ICRS grade (gICRS) of each knee as the final screening criterion. […]
Vital signs were also monitored after the injections.
Adverse events and concomitant medications were recorded.
All KOOS subscale scores, WOMAC Total score and subscale scores, MRI-based patello-femoral and tibiofemoral cartilage thickness, and MRI-based subchondral bone area and 3D bone shape were analyzed.
MRI images were provided to central readers for cartilage and subchondral bone measures, respectively. Central readers were blind as to treatment assignment. […]

[2] = in vivo

## TDLQERGDNDISPFSGDGQPFKD-NH2 (C-terminus assumed) [SEQ ID No: 10]
[1]
  adverse events: no severe adverse events that were related to the peptide; also recorded: mild or moderate, transient
  safety and tolerability: safe and well tolerated
[2]
  biological effects on cell types, tissues, or organs other than hard tissues: never demonstrated biological effects of the peptide on cell types, tissues, or organs other than cartilage, bone, and dentin
